Like-named read-outs stand apart in the source and are kept apart here.
Tests used:
[1] = Parallel artificial membrane permeability assay (PAMPA); assay type: in vitro ADME; conditions: phosphate buffer pH 7.4, donor 0.2 mM, 24 h at room temperature
Description: A donor solution (0.2 mM) was prepared by diluting 20 mM dimethyl sulfoxide (DMSO) compound stock solution using phosphate buffer (pH 7.4, 0.01 M). Filters were coated with 5 μL of a 1% (w/v) dodecane solution of L-α-phosphatidylcholine. Donor solution (150 μL) was added to each well of the filter plate. To each well of the acceptor plate, 300 μL of solution (5% DMSO in phosphate buffer) was added. […] The sandwich was incubated for 24 h at room temperature under gentle shaking. After the incubation time, the sandwich plates were separated, and 250 μL of the acceptor plate was transferred to a UV quartz microtiter plate and measured by UV spectroscopy, using a Multiskan GO microplate spectrophotometer (Thermo Fisher Scientific) at 250–500 nm at a step of 5 nm. Reference solutions (250 μL) were prepared diluting the sample stock solutions to the same concentration as that with no membrane barrier.

PRMT1 = PRMT1 (Homo sapiens, UniProt Q99873); test: Radioisotope-based filter-binding (HotSpot) assay, PRMT1; conditions: for IC50: radioisotope-based filter assay
Description: (§1) Then, ^3H-SAM (final concentration 1 μM) was delivered into the reaction mixture to initiate the reaction. After incubation for 60 min at 30 °C, the reaction mixture was delivered to filter paper for detection (as assessed by scintillation). Data were analyzed using Excel and GraphPad Prism 6.0 software (GraphPad Software Inc., San Diego, CA) for IC50 curve fits using sigmoidal dose vs response-variable slope (four parameters) equations.

PRMT3 = PRMT3 (Homo sapiens, UniProt O60678); test: Radioisotope-based filter-binding (HotSpot) assay, PRMT3; conditions: radioisotope-based filter assay
Description: as §1

PRMT4 = target: T1, PRMT4 (Homo sapiens, UniProt Q86X55); test: Radioisotope-based filter-binding (HotSpot) assay, PRMT4; conditions: for LE: ligand efficiency for PRMT4 calculated from IC50 as a surrogate for KD; for selectivity index for PRMT4 vs other PRMTs: PRMT1: ratio IC50 PRMT1 / IC50 PRMT4, rounded to nearest integer; for selectivity index for PRMT4 vs other PRMTs: PRMT3: ratio IC50 PRMT3 / IC50 PRMT4; for selectivity index for PRMT4 vs other PRMTs: PRMT5: ratio IC50 PRMT5 / IC50 PRMT4; for selectivity index for PRMT4 vs other PRMTs: PRMT6: ratio IC50 PRMT6 / IC50 PRMT4; for selectivity index for PRMT4 vs other PRMTs: PRMT7: ratio IC50 PRMT7 / IC50 PRMT4; for selectivity index for PRMT4 vs other PRMTs: PRMT8: ratio IC50 PRMT8 / IC50 PRMT4; for IC50: radioisotope-based filter assay; for SI PRMT1 (Figure 5 heatmap): selectivity index for PRMT4 over PRMT1; for SI PRMT3 (Figure 5 heatmap): selectivity index for PRMT4 over PRMT3; for SI PRMT5 (Figure 5 heatmap): selectivity index for PRMT4 over PRMT5; for SI PRMT6 (Figure 5 heatmap): selectivity index for PRMT4 over PRMT6; for SI PRMT7 (Figure 5 heatmap): selectivity index for PRMT4 over PRMT7; for SI PRMT8 (Figure 5 heatmap): selectivity index for PRMT4 over PRMT8
T1 sequence (Q86X55 2-608): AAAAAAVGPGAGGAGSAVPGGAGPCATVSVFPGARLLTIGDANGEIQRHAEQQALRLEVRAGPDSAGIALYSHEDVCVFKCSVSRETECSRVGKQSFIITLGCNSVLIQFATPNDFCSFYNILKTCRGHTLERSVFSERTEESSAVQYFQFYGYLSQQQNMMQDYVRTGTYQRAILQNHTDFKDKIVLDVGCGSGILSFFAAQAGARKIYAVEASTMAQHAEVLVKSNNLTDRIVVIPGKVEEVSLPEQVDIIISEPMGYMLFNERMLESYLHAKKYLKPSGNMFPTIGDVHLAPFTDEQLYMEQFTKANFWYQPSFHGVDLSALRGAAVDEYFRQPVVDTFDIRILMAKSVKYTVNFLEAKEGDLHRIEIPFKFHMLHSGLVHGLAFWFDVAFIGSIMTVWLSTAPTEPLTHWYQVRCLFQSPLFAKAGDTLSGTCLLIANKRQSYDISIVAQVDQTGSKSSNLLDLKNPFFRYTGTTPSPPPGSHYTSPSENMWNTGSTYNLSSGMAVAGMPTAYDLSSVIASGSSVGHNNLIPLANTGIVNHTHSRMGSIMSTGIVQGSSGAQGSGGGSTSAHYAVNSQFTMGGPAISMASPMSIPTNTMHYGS
Description: as §1

PRMT5/MEP50 complex = PRMT5/MEP50 complex (Homo sapiens, UniProt O14744); test: Radioisotope-based filter-binding (HotSpot) assay, PRMT5
Description: as §1

PRMT6 = PRMT6 (Homo sapiens, UniProt Q96LA8); test: Radioisotope-based filter-binding (HotSpot) assay, PRMT6; conditions: radioisotope-based filter assay
Description: as §1

ΔN(1–60)-PRMT8 = ΔN(1–60)-PRMT8 (Homo sapiens, UniProt Q9NR22); test: Radioisotope-based filter-binding (HotSpot) assay, PRMT8
Description: as §1

[2] = read-out: IC50 (μM) PRMT1, 5 μM histone H4, 1 μM 3H-SAM
[3] = read-out: IC50 PRMT1 (Figure 5 heatmap)
[4] = read-out: IC50 (μM) PRMT3, 5 μM histone H4, 1 μM 3H-SAM
[5] = read-out: IC50 PRMT3 (Figure 5 heatmap)
[6] = read-out: IC50 (μM) PRMT4, 5 μM histone H3, 1 μM 3H-SAM
[7] = read-out: IC50 PRMT4 (Figure 5 heatmap)
[8] = read-out: IC50 (μM) PRMT5, radioisotope-based filter assay, 5 μM histone H2A, 1 μM 3H-SAM
[9] = read-out: IC50 (μM) PRMT6, 5 μM GST-GAR, 1 μM 3H-SAM
[10] = read-out: IC50 PRMT6 (Figure 5 heatmap)
[11] = read-out: IC50 (μM) PRMT8, 5 μM histone H4, 1 μM 3H-SAM
[12] = read-out: IC50 PRMT8 (Figure 5 heatmap)
[13] = on increasing the linker between 4-hydroxy-2-naphthoate and guanidine (values equal the ratio to the IC50 of 12c)
[14] = read-out: IC50 PRMT5 (Figure 5 heatmap), radioisotope-based filter assay

Chain of ΔN(1–60)-PRMT8 (Q9NR22 61-394, stated change not applied): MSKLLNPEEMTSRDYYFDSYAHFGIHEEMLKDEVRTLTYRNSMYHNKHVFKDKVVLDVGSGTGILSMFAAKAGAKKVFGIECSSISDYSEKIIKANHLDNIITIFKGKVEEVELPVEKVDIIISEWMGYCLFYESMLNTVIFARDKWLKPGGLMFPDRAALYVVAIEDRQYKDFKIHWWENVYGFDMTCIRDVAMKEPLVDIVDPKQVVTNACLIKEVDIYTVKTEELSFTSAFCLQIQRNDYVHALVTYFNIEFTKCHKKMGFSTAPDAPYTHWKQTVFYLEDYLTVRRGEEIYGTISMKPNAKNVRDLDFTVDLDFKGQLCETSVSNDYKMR
Chain of PRMT1 (Q99873 2-371): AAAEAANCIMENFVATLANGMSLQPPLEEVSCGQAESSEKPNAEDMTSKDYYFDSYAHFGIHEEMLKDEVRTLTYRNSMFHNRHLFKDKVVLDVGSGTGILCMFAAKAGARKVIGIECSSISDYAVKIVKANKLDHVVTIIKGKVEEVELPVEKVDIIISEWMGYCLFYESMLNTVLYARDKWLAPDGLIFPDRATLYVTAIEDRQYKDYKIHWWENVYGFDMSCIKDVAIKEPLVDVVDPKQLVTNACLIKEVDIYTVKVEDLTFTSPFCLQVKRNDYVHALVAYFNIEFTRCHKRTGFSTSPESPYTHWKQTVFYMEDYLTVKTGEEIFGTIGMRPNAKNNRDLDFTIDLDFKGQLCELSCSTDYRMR
Chain of PRMT3 (O60678 2-531): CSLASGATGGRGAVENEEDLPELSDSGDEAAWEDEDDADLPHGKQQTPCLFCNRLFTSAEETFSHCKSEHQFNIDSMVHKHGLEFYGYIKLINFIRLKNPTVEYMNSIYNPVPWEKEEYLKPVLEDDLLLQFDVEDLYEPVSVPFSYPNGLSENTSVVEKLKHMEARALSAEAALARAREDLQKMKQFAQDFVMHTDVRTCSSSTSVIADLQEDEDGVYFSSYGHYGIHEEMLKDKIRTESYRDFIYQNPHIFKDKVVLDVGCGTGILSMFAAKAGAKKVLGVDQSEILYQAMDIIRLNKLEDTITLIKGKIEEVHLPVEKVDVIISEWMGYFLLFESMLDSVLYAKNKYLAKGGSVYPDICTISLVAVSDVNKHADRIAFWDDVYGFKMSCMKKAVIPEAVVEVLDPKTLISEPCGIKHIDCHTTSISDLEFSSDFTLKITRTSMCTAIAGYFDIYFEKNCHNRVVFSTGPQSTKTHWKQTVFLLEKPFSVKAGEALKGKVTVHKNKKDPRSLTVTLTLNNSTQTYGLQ
Chain of PRMT6 (Q96LA8 2-375): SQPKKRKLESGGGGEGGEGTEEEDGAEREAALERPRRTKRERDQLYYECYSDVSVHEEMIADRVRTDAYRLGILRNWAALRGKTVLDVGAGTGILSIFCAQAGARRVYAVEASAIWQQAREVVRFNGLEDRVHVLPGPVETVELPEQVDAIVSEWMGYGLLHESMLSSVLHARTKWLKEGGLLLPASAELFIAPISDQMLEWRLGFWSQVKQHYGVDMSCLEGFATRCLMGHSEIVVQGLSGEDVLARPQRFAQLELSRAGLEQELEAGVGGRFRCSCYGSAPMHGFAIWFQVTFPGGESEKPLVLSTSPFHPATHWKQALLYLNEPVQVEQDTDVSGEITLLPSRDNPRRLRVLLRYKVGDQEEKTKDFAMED
Chain of PRMT5/MEP50 complex (O14744 2-637): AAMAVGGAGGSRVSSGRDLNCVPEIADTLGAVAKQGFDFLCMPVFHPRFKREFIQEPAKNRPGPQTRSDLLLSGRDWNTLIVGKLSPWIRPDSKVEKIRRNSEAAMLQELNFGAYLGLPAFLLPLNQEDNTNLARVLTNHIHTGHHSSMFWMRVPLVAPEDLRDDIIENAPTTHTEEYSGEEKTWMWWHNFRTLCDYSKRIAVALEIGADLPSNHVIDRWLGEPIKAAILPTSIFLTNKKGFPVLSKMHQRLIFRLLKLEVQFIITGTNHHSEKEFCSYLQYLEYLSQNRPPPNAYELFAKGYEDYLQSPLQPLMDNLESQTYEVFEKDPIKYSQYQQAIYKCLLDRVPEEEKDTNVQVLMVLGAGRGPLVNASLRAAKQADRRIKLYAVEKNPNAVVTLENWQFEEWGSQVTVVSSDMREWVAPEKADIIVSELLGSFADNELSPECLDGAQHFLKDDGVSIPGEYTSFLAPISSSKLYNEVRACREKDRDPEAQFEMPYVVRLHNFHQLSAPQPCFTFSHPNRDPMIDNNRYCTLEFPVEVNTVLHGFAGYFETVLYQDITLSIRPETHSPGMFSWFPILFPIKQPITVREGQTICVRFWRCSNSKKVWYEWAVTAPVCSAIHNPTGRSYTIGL
Chain of PRMT5/MEP50 complex (Q9BQA1 2-342 partner limits assumed): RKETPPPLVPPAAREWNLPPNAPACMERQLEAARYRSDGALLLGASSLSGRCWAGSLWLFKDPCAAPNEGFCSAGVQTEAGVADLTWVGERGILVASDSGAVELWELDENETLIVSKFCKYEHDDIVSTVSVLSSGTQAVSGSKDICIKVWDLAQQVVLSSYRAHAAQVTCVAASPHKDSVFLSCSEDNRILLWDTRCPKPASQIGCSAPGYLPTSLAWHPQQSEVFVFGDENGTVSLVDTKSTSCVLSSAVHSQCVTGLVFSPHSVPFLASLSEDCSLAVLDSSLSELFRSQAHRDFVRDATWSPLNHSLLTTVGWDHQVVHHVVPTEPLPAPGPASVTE

Structure (SMILES) | IC50 (PRMT1; [2]) [µM] | IC50 (PRMT3; [4]) [µM] | IC50 (PRMT3; [5]) [µM] | LE (PRMT4) | selectivity index for PRMT4 vs other PRMTs: PRMT1 (PRMT4) | selectivity index for PRMT4 vs other PRMTs: PRMT3 (PRMT4) | selectivity index for PRMT4 vs other PRMTs: PRMT5 (PRMT4) | selectivity index for PRMT4 vs other PRMTs: PRMT6 (PRMT4) | selectivity index for PRMT4 vs other PRMTs: PRMT7 (PRMT4) | selectivity index for PRMT4 vs other PRMTs: PRMT8 (PRMT4) | IC50 (PRMT4; [6]) [µM] | SI PRMT1 (Figure 5 heatmap) (PRMT4) [fold] | SI PRMT3 (Figure 5 heatmap) (PRMT4) | SI PRMT6 (Figure 5 heatmap) (PRMT4) | SI PRMT7 (Figure 5 heatmap) (PRMT4) [fold] | SI PRMT8 (Figure 5 heatmap) (PRMT4) [fold] | IC50 (PRMT5/MEP50 complex; [8]) [µM] | IC50 (PRMT6; [9]) [µM] | IC50 (ΔN(1–60)-PRMT8; [11]) [µM] | IC50 (ΔN(1–60)-PRMT8; [12]) [µM] | other results
COC(=O)c1cc(O)c2cc(NC(=O)NCCCCNC(=N)NCCC[C@H]3O[C@@H](n4cnc5c(N)ncnc54)[C@H](O)[C@@H]3O)ccc2c1 [12g, Methyl 6-(3-(4-(3-(3-((2R,3S,4R,5R)-5-(6-Amino-9H-purin-9-yl)-3,4-dihydroxytetrahydrofuran-2-yl)propyl)guanidino)butyl)ureido)-4-hydroxy-2-naphthoate] | 1.8 | 13.3 | 13.2 | 0.24 | 214 | 1583 | 93 | 517 | 557 | 168 | 0.0084 | 214 | 1,583 fold | 517 fold | 557 | 168 | 0.778 | 4.34 | 1.41 | 1.41 | Papp at 24 h, 0.2 mM [1]: 0.039 ×10⁻⁶ cm/s; IC50 (PRMT1; [3]): 1.79 µM; IC50 (PRMT4; [7]): 0.008 µM; SI PRMT5 (Figure 5 heatmap) (PRMT4): 93 fold; IC50 (PRMT6; [10]): 4.34 µM
COC(=O)c1cc(O)c2cc(NC(=O)NCCCCNC(=N)NCC[C@H]3O[C@@H](n4cnc5c(N)ncnc54)[C@H](O)[C@@H]3O)ccc2c1 [12f, Methyl 6-(3-(4-(3-(2-((2R,3S,4R,5R)-5-(6-Amino-9H-purin-9-yl)-3,4-dihydroxytetrahydrofuran-2-yl)ethyl)guanidino)butyl)ureido)-4-hydroxy-2-naphthoate] | 4.86 | 10.5 | 10.5 | 0.24 | 501 | 1082 | 12 | 2340 | 23 | 619 | 0.0097 | 501 | 1,082 fold | 2,340 fold | 23 | 619 | 0.115 | 22.7 | 6 | 6 | Papp at 24 h, 0.2 mM [1]: 0.055 ×10⁻⁶ cm/s; IC50 (PRMT1; [3]): 4.86 µM; IC50 (PRMT4; [7]): 0.01 µM; IC50 (PRMT6; [10]): 22.7 µM
COC(=O)c1cc(O)c2cc(NC(=O)NCCCCCCCNC(=N)NC[C@H]3O[C@@H](n4cnc5c(N)ncnc54)[C@H](O)[C@@H]3O)ccc2c1 [12e, Methyl 6-(3-(7-(3-(((2R,3S,4R,5R)-5-(6-Amino-9H-purin-9-yl)-3,4-dihydroxytetrahydrofuran-2-yl)methyl)guanidino)heptyl)ureido)-4-hydroxy-2-naphthoate] | 2.6 | 12.4 | 12.4 | 0.20 | 15 | 70 | 19 | 202 | 4 | 33 | 0.176 | 15 | 70 fold | 202 fold | 4 | 33 | 3.38 | 35.6 | 5.84 |  | gain in the inhibitory activity against PRMT1 (PRMT1; [13]): 3.2 fold; IC50 (PRMT1; [3]): 2.6 µM; gain in the inhibitory activity against PRMT4 (PRMT4; [13]): 2.4 fold; SI PRMT5 (Figure 5 heatmap) (PRMT4): 19 fold; gain in the inhibitory activity against PRMT5 (PRMT5/MEP50 complex; [13]): 15.2 fold; IC50 (PRMT5/MEP50 complex; [14]): 3.38 µM
COC(=O)c1cc(O)c2cc(NC(=O)NCCCCNC(=N)NC/C=C/[C@H]3O[C@@H](n4cnc5c(N)ncnc54)[C@H](O)[C@@H]3O)ccc2c1 [12h, Methyl 6-(3-(4-(3-((E)-3-((2R,3S,4R,5R)-5-(6-Amino-9H-purin-9-yl)-3,4-dihydroxytetrahydrofuran-2-yl)allyl)guanidino)butyl)ureido)-4-hydroxy-2-naphthoate] |  | 4.05 | 4.04 |  |  |  |  |  |  |  | 0.0032 |  |  |  |  |  | 1.46 | 1.75 | 1.95 | 1.95 | Papp at 24 h, 0.2 mM [1]: 0.038 ×10⁻⁶ cm/s; IC50 (PRMT4; IC50 PRMT4 (Figure 5 heatmap)): 0.003 µM; gain in potency over its shorter counterpart 12b (PRMT4; PRMT4): 668 fold; IC50 (PRMT5/MEP50 complex; [14]): 1.46 µM; IC50 (PRMT6; [10]): 1.75 µM
COC(=O)c1cc(O)c2cc(NC(=O)NCCCCCNC(=N)NC[C@H]3O[C@@H](n4cnc5c(N)ncnc54)[C@H](O)[C@@H]3O)ccc2c1 [12c, Methyl 6-(3-(5-(3-(((2R,3S,4R,5R)-5-(6-Amino-9H-purin-9-yl)-3,4-dihydroxytetrahydrofuran-2-yl)methyl)guanidino)pentyl)ureido)-4-hydroxy-2-naphthoate] | 8.46 | 21.3 |  | 0.19 | 20 | 51 | 122 | >238 | 0.52 | 14 | 0.42 | 20 | 51 fold | > 238 fold | 0.52 | 14 | 51.4 | > 100 | 5.87 | 5.87 | IC50 (PRMT4; [7]): 0.421 µM; SI PRMT5 (Figure 5 heatmap) (PRMT4): 122 fold; IC50 (PRMT5/MEP50 complex): 5.14 µM

— publication PMC9469100, “Turning Nonselective Inhibitors of Type I Protein Arginine Methyltransferases into Potent and Selective Inhibitors of Protein Arginine Methyltransferase 4 through a Deconstruction–Reconstruction and Fragment-Growing Approach” (Journal of Medicinal Chemistry, 2022)
